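1) Cells in 96-well plates. 2) Compound, 48 h, 5 concentrations. 3) Linear interpolation between surrounding doses. 4) Unreached endpoint = highest concentration. Here, GI50 denotes the concentration required for 50% inhibition of growth.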 Activity calls are given as the source filed them. Cut-off read from the data, not from the text of the source: active = GI50 up to about 1.1 µM and inactive = higher. *1 amine or outer side, *2 acyl side, *3 side chain or, on linkers, in order; H or OH if unused. Where a SMILES comes first, the peptide text is derived from it. Bridges are numbered along the chain shown (N, C = ends). Roman numbers before positions name the chains, in order. [ ]: non-standard residue; d: D form. Actinocin(9to1) = Cc1c2oc3c(C)ccc(C(=O)[*:1])c3nc-2c(C(=O)[*:2])c(N)c1=O; NMeV = CN[CH](C(=O)O)C(C)C; Sar = CNCC(=O)O
What was measured:
Assay in all cases: growth of human tumour cells (NCI), 48 h
NCI/ADR-RES = test system: NCI/ADR-RES
DMS-114 = test system: DMS-114
DMS-273 = test system: DMS-273
HOP-18 = test system: HOP-18
KM-20L2 = test system: KM-20L2
LXFL 529 = test system: LXFL 529
SNB-78 = test system: SNB-78
XF498 = test system: XF498
RXF 631 = test system: RXF 631

SMILES | GI50 (NCI/ADR-RES) | GI50 (DMS-114) | GI50 (DMS-273) | GI50 (HOP-18) | GI50 (KM-20L2) | GI50 (LXFL 529) | GI50 (SNB-78) | other results
CC(C)N(C(=O)C1(O)c2ccccc2C=Cc2ccccc21)C(C)C | 18.2 µM (inactive) |  |  |  |  |  |  | 
N#CCCN(CCN(CCC#N)C(=O)Nc1ccccc1)C(=O)Nc1ccccc1 | 72.6 µM (inactive) |  |  |  |  |  |  | 
Nn1c(S)nnc1COc1cccc(OCc2nnc(S)n2N)c1 | > 100 µM (inactive) |  |  |  |  |  |  | 
CC1(CO)COS(=O)OC1 (centres undefined) | > 100 µM (inactive) |  |  |  |  |  |  | 
Oc1cccc(-c2nc3ccccc3s2)c1 | 21.9 µM (inactive) |  |  |  |  |  |  | 
CCCCCCCCCCCCNC(=S)OC |  | 4.63 µM (inactive) | 15.4 µM (inactive) | 17 µM (inactive) | 16.3 µM (inactive) | 14.8 µM (inactive) | 21.5 µM (inactive) | GI50 (XF498): 16.6 µM (inactive)
Cc1ccc(O)c(C(c2ccc([N+](=O)[O-])cc2)c2cc(C)ccc2O)c1 | 10.7 µM (inactive) |  |  |  |  |  |  | 
Cc1ccccc1NC(=O)CSc1nnc(Cc2ccccc2)o1 |  | > 100 µM (inactive) | > 100 µM (inactive) | > 100 µM (inactive) | > 100 µM (inactive) | > 100 µM (inactive) | > 100 µM (inactive) | 
Cc1c2c(cc3c1[nH]c1ccccc13)C(c1ccc(Cl)cc1)=NCC2 | 0.264 µM (active) | 0.347 µM (active) | 0.237 µM (active) | 3.99 µM (inactive) | 0.301 µM (active) |  | 0.682 µM (active) | GI50 (XF498): 0.0973 µM (active)
O=C(O)C(=C\c1ccc2c(c1)OCO2)/C(=C/c1ccc2c(c1)OCO2)C(=O)O | > 100 µM (inactive) |  |  |  |  |  |  | 
Nc1ccc2cc(S(=O)(=O)O)cc(O)c2c1/N=N/c1ccc(NC(=O)Nc2ccc(/N=N/c3c(N)ccc4cc(S(=O)(=O)O)cc(O)c34)c(S(=O)(=O)O)c2)cc1S(=O)(=O)O | > 100 µM (inactive) | 98.6 µM (inactive) | > 100 µM (inactive) | > 100 µM (inactive) |  |  | 97.7 µM (inactive) | GI50 (XF498): > 100 µM (inactive)
O=c1[nH]cnc2c(COCCCO)c[nH]c12 |  | > 100 µM (inactive) |  | > 100 µM (inactive) | > 100 µM (inactive) | > 100 µM (inactive) | > 100 µM (inactive) | 
CC(C)CNc1nc2ncnc(N)c2[nH]1 | > 100 µM (inactive) |  |  |  |  |  |  | 
C[N+](C)(C)c1ncnc2c1ncn2C1CC(O)C(CO)O1 (centres undefined) | > 100 µM (inactive) |  |  |  |  |  |  | 
COc1ccc(CC2COc3cc(O)cc(O)c3C2=O)cc1O (centres undefined) | 2.64 µM (inactive) |  |  |  |  |  |  | 
CC1OC1C(=O)P(=O)(O)O (centres undefined) | > 100 µM (inactive) |  |  |  |  |  |  | 
Cc1c2oc3c(C)ccc(C(=O)NC4C(=O)NC(C(C)O)C(=O)N5CCCC5C(=O)N(C)CC(=O)N(C)C(C(C)C)C(=O)OC4C)c3nc-2c(C(=O)NC2C(=O)NC(C(C)O)C(=O)N3CCCC3C(=O)N(C)CC(=O)N(C)C(C(C)C)C(=O)OC2C)c(N)c1=O (centres undefined) (I: TTP[Sar][NMeV] / II: TTP[Sar][NMeV]; ester I:1-I:C, II:1-II:C; linker I:N-II:N via Actinocin(9to1); configuration not given here) | > 100 µM (inactive) |  |  |  |  |  |  | 
CC1(CO)OC(n2cnc3c(N)ncnc32)C(O)C1O (centres undefined) |  | > 100 µM (inactive) | > 10 µM (inactive) | > 100 µM (inactive) |  | > 100 µM (inactive) |  | 
COc1cccc(/C=C2/S/C(=N/Nc3nc(C)c(C(C)=O)s3)NC2=O)c1O | 33.8 µM (inactive) |  |  |  |  |  |  | 
Cc1ccc(S(=O)(=O)OCCOCCOCCOCCOCCOS(=O)(=O)c2ccc(C)cc2)cc1 |  |  | 28.6 µM (inactive) | 65.3 µM (inactive) | 59.2 µM (inactive) | 33.7 µM (inactive) | 83.9 µM (inactive) | GI50 (RXF 631): 27.1 µM (inactive)
COC1OC2COC1(OC)C1OC(C)(C)OC21 (centres undefined) | > 100 µM (inactive) |  |  |  |  |  |  | 
CO/C(=N\N=Cc1ccccc1)c1ccncc1 |  | > 100 µM (inactive) | > 100 µM (inactive) |  | > 100 µM (inactive) | > 100 µM (inactive) | > 100 µM (inactive) | GI50 (XF498): 47.5 µM (inactive)
COc1ccc2nc3cc(Cl)ccc3c(NCCCCCC(=O)NC(COc3ccc4ccc5cccnc5c4n3)COc3ccc4ccc5cccnc5c4n3)c2c1 | 26.9 µM (inactive) |  |  |  |  |  |  | 
O=C(CCC(NC(=O)OCc1ccccc1)C(=O)OCc1ccccc1)Nc1cccc(OCc2ccccc2)c1 (centres undefined) | 36.2 µM (inactive) |  |  |  |  |  |  | 
CCCCCCC1NN(C(C)=O)C(CCCCCC)NN1C(C)=O (centres undefined) |  |  | > 100 µM (inactive) | > 100 µM (inactive) | > 100 µM (inactive) | > 100 µM (inactive) |  | 
CC/N=C(\N)CSS(=O)(=O)O | > 100 µM (inactive) |  |  |  |  |  |  | 
N=C(N)NCC(N)C(=O)O (centres undefined) | > 100 µM (inactive) |  |  |  |  |  |  | 
COc1ccc2c(c1)[n+]([O-])c(C(C)=O)c(C)[n+]2[O-] |  | > 100 µM (inactive) |  | > 100 µM (inactive) |  | > 100 µM (inactive) | > 100 µM (inactive) | GI50 (XF498): > 100 µM (inactive)
COc1ccc2c(c1)OC[C@@H]1c3cc(O)c(OCc4ccccc4)cc3O[C@H]21 |  | 19.5 µM (inactive) | 40.6 µM (inactive) | > 100 µM (inactive) | 33.9 µM (inactive) | 18.7 µM (inactive) | 19.7 µM (inactive) | GI50 (RXF 631): 45.2 µM (inactive); GI50 (XF498): 26.2 µM (inactive)
O=C(CCCN1CCC(C(O)c2ccc(F)cc2)CC1)c1ccc(F)cc1 (centres undefined) | 66.5 µM (inactive) | 49.7 µM (inactive) | 63.5 µM (inactive) | 66.8 µM (inactive) | 41.7 µM (inactive) |  | 56.9 µM (inactive) | GI50 (XF498): 4.46 µM (inactive)
